Experimental data reported in patent US9873704B2, “Heterocyclic compounds and their uses” (Amgen Inc., priority 2009, dated 2018).

What was measured:
[1] = tested on: protein kinases; conditions: cited from earlier work
[2] = molecular target: T1, p110δ (Homo sapiens, UniProt O00329); conditions: cited from earlier work
T1 sequence (O00329 1-1044): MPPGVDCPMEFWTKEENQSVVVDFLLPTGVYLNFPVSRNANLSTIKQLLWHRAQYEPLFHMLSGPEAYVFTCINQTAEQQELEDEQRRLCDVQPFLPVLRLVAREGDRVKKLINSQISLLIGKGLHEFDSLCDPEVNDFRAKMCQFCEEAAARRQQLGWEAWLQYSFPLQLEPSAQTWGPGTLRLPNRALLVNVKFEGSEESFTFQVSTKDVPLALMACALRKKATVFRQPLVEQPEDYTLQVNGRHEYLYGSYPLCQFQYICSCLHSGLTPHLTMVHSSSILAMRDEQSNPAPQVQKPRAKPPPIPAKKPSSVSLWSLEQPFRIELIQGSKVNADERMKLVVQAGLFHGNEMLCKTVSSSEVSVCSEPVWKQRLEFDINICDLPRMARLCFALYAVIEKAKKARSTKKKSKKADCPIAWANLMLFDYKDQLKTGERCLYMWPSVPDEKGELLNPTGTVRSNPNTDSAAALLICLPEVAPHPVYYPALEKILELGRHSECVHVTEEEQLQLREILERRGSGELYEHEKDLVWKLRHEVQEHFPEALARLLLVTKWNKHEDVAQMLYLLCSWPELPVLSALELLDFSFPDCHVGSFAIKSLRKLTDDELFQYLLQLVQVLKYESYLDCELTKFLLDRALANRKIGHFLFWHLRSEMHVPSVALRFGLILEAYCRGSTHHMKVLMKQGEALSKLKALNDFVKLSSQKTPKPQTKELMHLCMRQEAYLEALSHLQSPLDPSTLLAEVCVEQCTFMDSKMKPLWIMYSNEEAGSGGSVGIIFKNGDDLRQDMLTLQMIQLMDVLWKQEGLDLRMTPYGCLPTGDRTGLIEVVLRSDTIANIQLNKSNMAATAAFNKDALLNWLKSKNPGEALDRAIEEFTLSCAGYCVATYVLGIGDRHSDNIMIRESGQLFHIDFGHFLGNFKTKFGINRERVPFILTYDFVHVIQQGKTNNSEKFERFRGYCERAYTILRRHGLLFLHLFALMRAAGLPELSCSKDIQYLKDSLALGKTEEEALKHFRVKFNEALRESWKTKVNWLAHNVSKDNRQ

[3] = tested on: murine model of asthma; conditions: ovalbumin-induced airway inflammation; cited from earlier work
[4] = tested on: model of systemic lupus erythematosis; conditions: in vivo; cited from earlier work
[5] = tested on: mouse model of rheumatoid arthritis; conditions: in vivo; cited from earlier work
[6] = molecular target: T2, PI3Kδ (Homo sapiens, UniProt O00329); assay: PI3Kδ Alphascreen assay; format: biochemical
T2 construct: Full length p110 subunits of PI3k α, β and δ, N-terminally labeled with polyHis tag; polyHis (N); made in house; host or cells: Sf9 insect cells (baculovirus)
Method: Full length p110 subunits of PI3k α, β and δ, N-terminally labeled with polyHis tag, were coexpressed with p85 with Baculo virus expression vectors in sf9 insect cells. P110/p85 heterodimers were purified by sequential Ni-NTA, Q-HP, Superdex-100 chromatography. Purified α, β and δ isozymes were stored at −20° C. in 20 mM Tris, pH 8, 0.2M NaCl, 50% glycerol, 5 mM DTT, 2 mM Na cholate. […] The γ isozyme was purified by sequential Ni-NTA, Superdex-200, Q-HP chromatography. The γ isozyme was stored frozen at −80° C. in NaH2PO4, pH 8, 0.2M NaCl, 1% ethylene glycol, 2 mM β-mercaptoethanol.
A PI3K Alphascreen® assay (PerkinElmer, Waltham, Mass.) was used to measure the activity of a panel of four phosphoinositide 3-kinases: PI3Kα, PI3Kβ, PI3Kγ, and PI3Kδ. Enzyme reaction buffer was prepared using sterile water (Baxter, Deerfield, Ill.) and 50 mM Tris HCl pH 7, 14 mM MgCl2, 2 mM sodium cholate, and 100 mM NaCl. 2 mM DTT was added fresh the day of the experiment. The Alphascreen buffer was made using sterile water and 10 mM Tris HCl pH 7.5, 150 mM NaCl, 0.10% Tween 20, and 30 mM EDTA. 1 mM DTT was added fresh the day of the experiment. Compound source plates used for this assay were 384-well Greiner clear polypropylene plates containing test compounds at 5 mM and diluted 1:2 over 22 concentrations. Columns 23 and 24 contained only DMSO as these wells comprised the positive and negative controls, respectively. Source plates were replicated by transferring 0.5 uL per well into 384-well Optiplates (PerkinElmer, Waltham, Mass.).
Each PI3K isoform was diluted in enzyme reaction buffer to 2× working stocks. […] PI(4,5)P2 (Echelon Biosciences, Salt Lake City, Utah) was diluted to 10 μM and ATP was diluted to 20 μM. This 2× stock was used in the assays for PI3Kα and PI3Kβ. For assay of PI3Kγ and PI3Kδ, PI(4,5)P2 was diluted to 10 μM and ATP was diluted to 8 μM to prepare a similar 2× working stock. Alphascreen reaction solutions were made using beads from the anti-GST Alphascreen kit (PerkinElmer, Waltham, Mass.). Two 4× working stocks of the Alphascreen reagents were made in Alphascreen reaction buffer. In one stock, biotinylated-IP4 (Echelon Biosciences, Salt Lake City, Utah) was diluted to 40 nM and streptavidin-donor beads were diluted to 80 μg/mL. In the second stock, PIP3-binding protein (Echelon Biosciences, Salt Lake City, Utah) was diluted to 40 nM and anti-GST-acceptor beads were diluted to 80 μg/mL.
10 μL/well of the appropriate substrate 2× stock (containing 20 μM ATP for the PI3Kα and β assays and containing 8 μM ATP for the PI3Kγ and δ assays) was then added to Columns 1-24 of all plates. Plates were then incubated at room temperature for 20 minutes. In the dark, 10 μL/well of the donor bead solution was added to columns 1-24 of the plates to quench the enzyme reaction. The plates were incubated at room temperature for 30 minutes. Still in the dark, 10 μL/well of the acceptor bead solution was added to columns 1-24 of the plates. The plates were then incubated in the dark for 1.5 hours. The plates were read on an Envision multimode Plate Reader (PerkinElmer, Waltham, Mass.) using a 680 nm excitation filter and a 520-620 nm emission filter.

T2 sequence (P27986 whole entry partner, one chain of several): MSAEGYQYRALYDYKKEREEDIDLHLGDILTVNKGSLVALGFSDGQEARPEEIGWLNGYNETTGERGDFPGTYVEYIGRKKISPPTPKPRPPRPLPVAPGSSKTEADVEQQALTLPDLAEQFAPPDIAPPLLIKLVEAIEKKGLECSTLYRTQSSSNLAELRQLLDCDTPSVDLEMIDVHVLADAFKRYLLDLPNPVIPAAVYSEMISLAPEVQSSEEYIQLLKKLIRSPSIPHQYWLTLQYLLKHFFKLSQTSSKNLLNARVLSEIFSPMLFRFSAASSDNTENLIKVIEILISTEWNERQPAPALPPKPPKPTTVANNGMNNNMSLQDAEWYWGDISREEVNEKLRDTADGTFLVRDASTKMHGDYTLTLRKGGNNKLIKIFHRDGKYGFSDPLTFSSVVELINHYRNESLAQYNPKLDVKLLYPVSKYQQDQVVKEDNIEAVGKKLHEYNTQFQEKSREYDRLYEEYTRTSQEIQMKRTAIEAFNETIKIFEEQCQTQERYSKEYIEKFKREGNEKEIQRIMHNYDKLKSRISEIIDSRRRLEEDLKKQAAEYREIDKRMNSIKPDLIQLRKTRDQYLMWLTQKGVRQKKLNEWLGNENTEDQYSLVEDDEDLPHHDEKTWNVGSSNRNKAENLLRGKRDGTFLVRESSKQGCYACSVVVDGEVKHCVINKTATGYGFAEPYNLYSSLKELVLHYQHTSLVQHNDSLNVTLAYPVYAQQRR

| Ki [6] [nM] | SMILES | other results |
| --- | --- | --- |
|  | Cc1ccccc1-n1c(Cn2cnc3c(N)ncnc32)nc2cccc(C)c2c1=O [IC87114] | activity against any protein kinases tested [1]: no activity; inhibits p110δ [2]: high nanomolar range (triple digit); inflammation and disease in a murine model of asthma [3]: significantly ameliorate inflammation and disease |
|  | O=C1NC(=O)/C(=C\c2ccc3nccnc3c2)S1 [AS 605240] | onset of disease in a model of systemic lupus erythematosis [4]: delay onset of disease; efficacy in a mouse model of rheumatoid arthritis [5]: efficacious |
| 320 | C[C@H](c1nc2ccc(F)cc2cc1-c1ccccn1)n1nc(C#N)c2c(N)ncnc21 [(R)-4-amino-1-(1-(6-fluoro-3-(pyridin-2-yl)quinolin-2-yl)ethyl)-1H-pyrazolo[3,4-d]pyrimidine-3-carbonitrile] |  |
| 1.35 | COCCNc1c(-c2ccccc2)c(C(C)Nc2ncnc(N)c2C#N)nc2ccc(F)cc12 (centres unmarked) [4-Amino-6-(1-(6-fluoro-4-((2-methoxyethyl)amino)-3-phenyl-2-quinolinyl)-ethyl)amino)-5-pyrimidinecarbonitrile] |  |
| 1.12 | CC(Nc1ncnc(N)c1C#N)c1nc2ccc(F)cc2c(S(C)(=O)=O)c1-c1cc(F)cc(F)c1 (centres unmarked) [4-Amino-6-(1-(3-(3,5-difluorophenyl)-6-fluoro-4-(methylsulfonyl)quinolin-2-yl)ethylamino)pyrimidine-5-carbonitrile] |  |
| 68.4 | COc1c(-c2cc(F)cc(F)c2)c([C@H](C)Nc2ncnc(N)c2C#N)nc2ccc(F)cc12 [(S)-4-Amino-6-(1-(3-(3,5-difluorophenyl)-6-fluoro-4-methoxyquinolin-2-yl)-ethylamino)pyrimidine-5-carbonitrile] |  |
| 1.64 | C[C@H](Nc1ncnc(N)c1C#N)c1nc2ccc(F)cc2c(C(=O)NC2CC2)c1-c1ccccn1 [(S)-2-(1-(6-Amino-5-cyanopyrimidin-4-ylamino)ethyl)-N-cyclopropyl-6-fluoro-3-(pyridin-2-yl)quinoline-4-carboxamide] |  |
| 7.77 | C[C@@H](Nc1ncnc(N)c1C#N)c1nc2ccc(F)cc2c(C(=O)N(C)C)c1-c1ccccn1 (stereo in doubt) [2-(1-((6-Amino-5-cyano-4-pyrimidinyl)amino)ethyl)-6-fluoro-N,N-dimethyl-3-(2-pyridinyl)-4-quinolinecarboxamide] |  |
| 5470 | C[C@H](c1nc2ccc(F)cc2cc1-c1cncc(F)c1)n1nc(C#N)c2c(N)ncnc21 [4-amino-1-((R)-1-(6-fluoro-3-(5-fluoropyridin-3-yl)quinolin-2-yl)ethyl)-1H-pyrazolo[3,4-d]pyrimidine-3-carbonitrile] |  |
| 1.8 | CC(Nc1ncnc(N)c1C#N)c1nc2ccc(F)cc2c([S@@+]([O-])CCO)c1-c1ccccc1 (stereo partly drawn) [4-amino-6-(1-(6-fluoro-4-((S)-2-hydroxyethylsulfinyl)-3-phenylquinolin-2-yl)ethylamino)pyrimidine-5-carbonitrile] |  |
| 2.34 | CC(Nc1ncnc2[nH]cnc12)c1nc2ccc(F)cc2c(S(C)(=O)=O)c1-c1ccccc1 (centres unmarked) [N-(1-(6-Fluoro-4-(methylsulfonyl)-3-phenylquinolin-2-yl)ethyl)-9H-purin-6-amine] |  |
| 130 | C[C@H](Nc1ncnc(N)c1C#N)c1nc2ccc(F)cc2cc1-c1cccc(S(C)(=O)=O)n1 [(S)-4-Amino-6-(1-(6-fluoro-3-(6-(methylsulfonyl)pyridin-2-yl)quinolin-2-yl)ethylamino)pyrimidine-5-carbonitrile] |  |
| 1.31 | CC(Nc1ncnc(N)c1C#N)c1nc2ccc(F)cc2c(CN2CCOCC2)c1-c1ccccc1 (centres unmarked) [4-amino-6-((-1-(6-fluoro-4-(4-morpholinylmethyl)-3-phenyl-2-quinolinyl)ethyl)amino)-5-pyrimidinecarbonitrile] |  |
| 0.505 | C[C@H](Nc1ncnc(N)c1C#N)c1nc2ccc(F)cc2c(C(=O)N2CCOCC2)c1-c1ccccc1 [4-amino-6-(((1S)-1-(6-fluoro-4-(4-morpholinylcarbonyl)-3-phenyl-2-quinolinyl)ethyl)amino)-5-pyrimidinecarbonitrile] |  |
